Assay results: US8188059B2, “Compounds and methods for modulating expression of GCGR” (Isis Pharmaceuticals, Inc., priority 2006, dated 2012)
Strand notation (5' to 3'): a small letter for the sugar, then the base; units joined by * are phosphorothioate-linked, units joined directly phosphodiester-linked; [ ] holds rarer units or linkages, { } end groups; capitals alone tell only the bases. e = 2'-O-(2-methoxyethyl) (MOE); [5mC] = 5-methylcytosine; d = 2'-deoxy (DNA)

Columns and labels:
[1] = tested on: PTP1B mRNA; experiment: Dose response for human PTP1B in HuVEC cells, Primer Probe Set 198 (Example 25, Table 86); type: cell-based
Protocol: (§1) Human vascular endothelial (HuVEC) cells were plated at a density of 5000 cells per well and treated as described herein with nM concentrations of short antisense compound as indicated in Table 86. After the treatment period, RNA was isolated from the cells and PTP1B mRNA levels were measured by quantitative real-time PCR, as described herein. PTP1B mRNA levels were adjusted according to total RNA content as measured by RIBOGREEN®. Two different human PTP1B primer probe sets were used to measure mRNA levels. Results with Primer Probe Set (PPS) 198 are shown in Table 86, and results with Primer Probe Set (PPS) 3000 are shown in Table 87. Results are presented as percent inhibition of PTP1B mRNA expression relative to untreated control cells.

[2] = tested on: PTP1B mRNA; experiment: Dose response for human PTP1B in HuVEC cells, Primer Probe Set 3000 (Example 25, Table 87); type: cell-based
Protocol: as §1

[3] = tested on: PCSK9 mRNA; type: cell-based, human; settings: Hep3B cells, 100 nM, relative to untreated control cells; for % Inhib (PCSK9 mRNA): 0 = no reduction observed
Protocol: When cells reached appropriate confluency, they were treated with oligonucleotide using LIPOFECTIN® as described. […] Cells were treated and data were obtained in duplicate or triplicate. […] Cells were harvested 16-24 hours after oligonucleotide treatment.
Short antisense compounds targeted to a PCSK9 nucleic acid were tested for their effects on PCSK9 mRNA in vitro. The Isis No, gapmer motif and SEQ ID NO of each short antisense compound are shown again in Table 75. Cultured Hep3B cells were treated with 100 nM of short antisense compound. 5-10-5 MOE gapmers targeted to a PCSK9 nucleic acid were used as positive controls. After the treatment period, RNA was isolated from the cells and PCSK9 mRNA levels were measured by quantitative real-time PCR, as described herein. PCSK9 mRNA levels were adjusted according to total RNA content as measured by RIBOGREEN®. Results are presented in Table 75 as percent inhibition of PCSK9 (% Inhib), relative to untreated control cells.

Substance | % Inhibition of PTP1B mRNA ([1]; PPS 198, 1.11 nM) [%] | % Inhibition of PTP1B mRNA ([1]; PPS 198, 3.33 nM) [%] | % Inhibition of PTP1B mRNA ([1]; PPS 198, 10.0 nM) [%] | % Inhibition of PTP1B mRNA ([1]; PPS 198, 30.0 nM) [%] | % Inhibition of PTP1B mRNA ([2]; PPS 3000, 1.11 nM) [%] | % Inhibition of PTP1B mRNA ([2]; PPS 3000, 3.33 nM) [%] | % Inhibition of PTP1B mRNA ([2]; PPS 3000, 10.0 nM) [%] | % Inhibition of PTP1B mRNA ([2]; PPS 3000, 30.0 nM) [%] | % Inhib (PCSK9 mRNA) [3] [%] | % Inhibition Range (PCSK9 mRNA) [3]
398105 (antisense eT*eG*d[5mC]*dA*d[5mC]*dA*dG*dG*d[5mC]*dA*dG*dG*eT*eT) [compound 398105] | 0 | 25 | 79 | 90 | 0 | 35 | 79 | 93 | – | –
398112 (antisense e[5mC]*eA*dG*d[5mC]*d[5mC]*dT*dG*dG*d[5mC]*dA*d[5mC]*d[5mC]*eT*eA) [compound 398112] | 1 | 10 | 73 | 93 | 0 | 26 | 77 | 94 | – | –
398120 (antisense eG*eT*dT*d[5mC]*dA*dA*dG*d[5mC]*dG*dG*d[5mC]*d[5mC]*eT*eA) [compound 398120] | 0 | 31 | 80 | 96 | 0 | 35 | 79 | 93 | – | –
398173 (antisense e[5mC]*dA*dG*d[5mC]*d[5mC]*dT*dG*dG*dG*d[5mC]*dA*e[5mC]) [compound 398173] | 0 | 4 | 80 | 97 | 0 | 18 | 80 | 90 | – | –
399096 (antisense eT*eG*d[5mC]*dT*d[5mC]*dG*dA*dA*d[5mC]*dT*d[5mC]*d[5mC]*eT*eT) [compound 399096] | 3 | 30 | 78 | 96 | 0 | 23 | 75 | 94 | – | –
399102 (antisense eG*eA*dA*dG*dT*d[5mC]*dA*d[5mC]*dT*dG*dG*d[5mC]*eT*eT) [compound 399102] | 0 | 15 | 62 | 88 | 0 | 9 | 60 | 87 | – | –
399113 (antisense eG*eT*dT*dA*dG*dG*d[5mC]*dA*dA*dA*dG*dG*eG*e[5mC]) [compound 399113] | 0 | 31 | 72 | 90 | 0 | 9 | 65 | 90 | – | –
399132 (antisense eG*eG*dG*d[5mC]*dT*dG*dA*dG*dT*dG*dA*d[5mC]*e[5mC]*e[5mC]) [compound 399132] | 0 | 32 | 75 | 95 | 0 | 26 | 76 | 91 | – | –
399173 (antisense eA*eT*dG*d[5mC]*dT*dA*dG*dT*dG*d[5mC]*dA*d[5mC]*eT*eA) [compound 399173] | 0 | 24 | 63 | 89 | 0 | 11 | 59 | 92 | – | –
400355 (antisense eA*eG*dA*d[5mC]*dA*d[5mC]*d[5mC]*d[5mC]*dT*d[5mC]*dA*d[5mC]*e[5mC]*e[5mC]) [compound 400355] | – | – | – | – | – | – | – | – | 0 | –
400356 (antisense eT*eA*dG*dA*d[5mC]*dA*d[5mC]*d[5mC]*d[5mC]*dT*d[5mC]*dA*e[5mC]*e[5mC]) [compound 400356] | – | – | – | – | – | – | – | – | 0 | –
400357 (antisense eT*eG*dG*d[5mC]*dA*dG*d[5mC]*dA*dG*dG*dA*dA*eG*e[5mC]) [compound 400357] | – | – | – | – | – | – | – | – | 0 | –
400358 (antisense eA*eT*dG*dG*d[5mC]*dA*dG*d[5mC]*dA*dG*dG*dA*eA*eG) [compound 400358] | – | – | – | – | – | – | – | – | 12 | 10-20%
